Data from patent US8664201B2 (priority 2008, dated 2014).
Values joined by “and” are separate entries in the source; they are usually repeats but may differ in a detail not shown here. Equal values may be shown once. Read-outs that look alike come from different tables or passages of the source. Marks after values point to notes of the source that are not given here.

Key:
Lewis Lung Carcinoma = system: Lewis Lung Carcinoma; design: species or system mice; conditions: mouse, in vivo
P388/0 = type: in vivo, mice
[1] = system: human MX-1 mammary tumors; type: in vivo, mice
16/C Mammary Tumor = type: in vivo, mice
P388/CPA = type: in vivo, mice
human lox-IMVI melanoma = type: in vivo, mice
L1210/0 = type: in vivo, mice
B16 Melanoma = system: B16 Melanoma; design: species or system mice; conditions: mouse, in vivo
L1210/CPA = type: in vivo, mice
Lewis lung murine tumor = conditions: mouse, in vivo, ip
[2] = Acute toxicity, three daily IV bolus injections in mice (IPM lysine salt, IPM parent control); type: in vivo; conditions: 150 mg/kg IV daily × 3
Method: This example describes the evaluation of the acute toxicity of isophosphoramide mustard lysine salt, following three days of daily intravenous (bolus) injection in mice. This study consisted of two phases.
The second main study phase consisted of eight treatment groups (five mice/sex/group) that received the test article as a single daily dose for three consecutive days at respective dose levels of 50, 75, 100, 200, 300, 400, 500, and 600 mg/kg. An additional group (5 mice/sex) served as a parent compound control and received the isophosphoramide mustard parent compound in the same manner, at a dose level of 150 mg/kg. The vehicle was 0.9% sodium chloride for injection, USP and all doses were at a constant volume of 15 mL/kg.
Observations for mortality, morbidity, and the availability of food and water were conducted twice daily for all animals. Observations for clinical signs were conducted daily during the study (approximately one and four hours postdose on Days 1, 2, and 3, and once daily on non-dosing days). Body weights for all surviving animals were measured and recorded the second day after receipt, prior to randomization, and on Days-1 and 7. Body weights also were measured on all surviving main study phase animals on Day 14. Macroscopic evaluations were performed on each main study animal at necropsy (Day 15).
Eight main study treatment groups received the test article as a single daily dose for three consecutive days via intravenous (bolus) injection at respective dose levels of 50, 75, 100, 200, 300, 400, 500, and 600 mg/kg. An additional group (five mice/sex) served as a parent compound control and received the Isophosphoramide Mustard Parent Compound in the same manner at a dose level of 150 mg/kg. All doses were at a volume of 15 mL/kg and based on the most recent body weight.

MX-1 Human Breast Tumor = conditions: mouse, in vivo, ip
M5076 Sarcoma = experiment: SC implanted M5076 sarcoma; type: in vivo, mice; conditions: days 11-15
[3] = Sub-acute IV (3-day) toxicity of IPM in mice; type: in vivo; conditions: for dose with kidney tubular necrosis / dose with severe bone marrow depletion / intravenous LD10 / intravenous LD50: IV daily × 3 days
Description: Multiple daily dose Administrations—IV and IP—have been studied in mice and dogs. Sub-acute intravenous (3-day) dosing in the mouse and dog has provided the toxicology/pharmacokinetic information regarding toxicities and drug disturbances that were utilized in designing the administration and dose schedules in humans.

[4] = Single dose oral toxicity of IPM in rats; type: in vivo; conditions: for oral LD50: single dose
[5] = Estimated comparable human intravenous dosages
[6] = Single dose oral toxicity of IPM in mice; type: in vivo
[7] = Single dose intravenous toxicity of IPM in rats; type: in vivo
[8] = Single dose intravenous toxicity of IPM in mice; type: in vivo

O=P1(N(CCCl)CCCl)NCCCO1 (stereo not shown) [Cyclophosphamide, cyclophosphamide]
% ILS (Lewis Lung Carcinoma): 68%
Log kill total (Lewis Lung Carcinoma): >6.8
T-C (tumor growth delay) (Lewis Lung Carcinoma): 27 days
Tumor-free survivors (Lewis Lung Carcinoma): 5/10
% ILS (dying mice only) (P388/0; 175 mg/kg IP, day 1 only): +130%
Day 60 survivors/total (P388/0; 175 mg/kg IP, day 1 only): 4/10
Net log10 reduction in tumor burden after therapy (P388/0; 175 mg/kg IP, day 1 only): 7
% ILS (dying mice only) (P388/0; 265 mg/kg IP, day 1 only): +280%
Day 60 survivors/total (P388/0; 265 mg/kg IP, day 1 only): 7/10
Net log10 reduction in tumor burden after therapy (P388/0; 265 mg/kg IP, day 1 only): 7
Days Delay (T-C) ([1]; 60 mg/kg IP, Q 1dx 5 day 12): >40.5 days
Days to 2 Doublings ([1]; 60 mg/kg IP, Q 1dx 5 day 12): >48.0 days
Days Delay (T-C) (16/C Mammary Tumor; 30 mg/kg IP, Q 1dx 4 day 7): 0.4 days
Days to 2 Doublings (16/C Mammary Tumor; 30 mg/kg IP, Q 1dx 4 day 7): 3.6 days
Days Delay (T-C) (16/C Mammary Tumor; 40 mg/kg IP, Q 1dx 4 day 7): 1.2 days
Days to 2 Doublings (16/C Mammary Tumor; 40 mg/kg IP, Q 1dx 4 day 7): 4.4 days
Days Delay (T-C) (16/C Mammary Tumor; 50 mg/kg IP, Q 1dx 4 day 7): 4.0 days
Days to 2 Doublings (16/C Mammary Tumor; 50 mg/kg IP, Q 1dx 4 day 7): 7.2 days
Days Delay (T-C) (16/C Mammary Tumor; 60 mg/kg IP, Q 1dx 4 day 7): 4.5 days
Days to 2 Doublings (16/C Mammary Tumor; 60 mg/kg IP, Q 1dx 4 day 7): 7.7 days
% ILS (dying mice only) (P388/CPA; 175 mg/kg IP, day 1 only): +35%
Day 60 survivors/total (P388/CPA; 175 mg/kg IP, day 1 only): 0/10
Net log10 reduction in tumor burden after therapy (P388/CPA; 175 mg/kg IP, day 1 only): 3
% ILS (dying mice only) (P388/CPA; 265 mg/kg IP, day 1 only): +35%
Day 60 survivors/total (P388/CPA; 265 mg/kg IP, day 1 only): 0/10
Net log10 reduction in tumor burden after therapy (P388/CPA; 265 mg/kg IP, day 1 only): 3
% ILS (human lox-IMVI melanoma; 40 mg/kg/dose IV, Q1DX5): +121%
Median Day of Death (human lox-IMVI melanoma; 40 mg/kg/dose IV, Q1DX5): 42.0
% ILS (dying mice only) (L1210/0; 200 mg/kg IP, day 2 only): +107%
Day 60 survivors/total (L1210/0; 200 mg/kg IP, day 2 only): 0/10
Net log10 reduction in tumor burden after therapy (L1210/0; 200 mg/kg IP, day 2 only): 7
% ILS (B16 Melanoma): 68%
T-C (B16 Melanoma): 27 days
Tumor-free survivors (B16 Melanoma): 5/10
% ILS (dying mice only) (L1210/CPA; 200 mg/kg IP, day 2 only): +57%
Day 60 survivors/total (L1210/CPA; 200 mg/kg IP, day 2 only): 0/10
Net log10 reduction in tumor burden after therapy (L1210/CPA; 200 mg/kg IP, day 2 only): 4

O=P(O)(NCCCl)NCCCl [IPM, isophosphoramide mustard]
MTD Dosage (Lewis lung murine tumor): 40.0 mg/kg/dose
T-C (Lewis lung murine tumor): 12.5* days
Cumulative Mortality, female [2]: 4/5
Cumulative Mortality, male [2]: 1/5
Cumulative Mortality, total ([2]; listed as IPM parent compound): 5 of 10 and 5/10
% ILS (Lewis Lung Carcinoma): 34%
Log kill total (Lewis Lung Carcinoma): >2.1
T-C (tumor growth delay) (Lewis Lung Carcinoma): 8.4 days
Tumor-free survivors (Lewis Lung Carcinoma): 6/10
MTD Dosage (MX-1 Human Breast Tumor): 40.0 mg/kg/dose
T-C (MX-1 Human Breast Tumor): 2.1* days
Days Delay (T-C) (M5076 Sarcoma; 18 mg/kg IP daily): 1 days
Days To 2 doublings (M5076 Sarcoma; 18 mg/kg IP daily): 10.3 days
Days Delay (T-C) (M5076 Sarcoma; 27 mg/kg IP daily): 3.3 days
Days To 2 doublings (M5076 Sarcoma; 27 mg/kg IP daily): 12.6 days
Days Delay (T-C) (M5076 Sarcoma; 40 mg/kg IP daily): 6.1 days
Days To 2 doublings (M5076 Sarcoma; 40 mg/kg IP daily): 15.4 days
Day 60 survivors/total (P388/0; mouse, in vivo): 0/9 and 1/10
Days to 2 Doublings ([1]; mouse, in vivo): 26.5 days and 14.2 days
Days Delay (T-C) (16/C Mammary Tumor; mouse, in vivo): 6.3 days and 5.2 days and 4.2 days
Days to 2 Doublings (16/C Mammary Tumor; mouse, in vivo): 9.5 days and 8.5 days and 7.4 days
Day 60 survivors/total (P388/CPA; mouse, in vivo): 0/10
Net log10 reduction in tumor burden after therapy (P388/CPA; mouse, in vivo): 7
% ILS (human lox-IMVI melanoma; mouse, in vivo): +52%
Median Day of Death (human lox-IMVI melanoma; mouse, in vivo): 29.0
treatment-related microscopic findings ([3]; 75 mg/kg, either sex): No obvious treatment-related microscopic findings
Sub-acute IV LD10 ([3]; Mouse): 119 mg/kg/day
dose with kidney tubular necrosis ([3]; female mice): ≥ 133 mg/kg
dose with severe bone marrow depletion ([3]; female mice): ≥ 133 mg/kg
intravenous LD10 ([3]; female mice): 125 mg/kg
intravenous LD50 ([3]; female mice): 132 mg/kg
dose with kidney tubular necrosis ([3]; male mice): ≥ 237 mg/kg
dose with severe bone marrow depletion ([3]; male mice): ≥ 178 mg/kg
intravenous LD10 ([3]; male mice): 168 mg/kg
intravenous LD50 ([3]; male mice): 176 mg/kg
intravenous LD10 ([3]; mice, combined sexes): 119 mg/kg
oral LD50 ([4]; female rats): 2786 mg/kg
oral LD50 ([4]; male rats): 4443 mg/kg
oral LD50 range ([4]; oral, range over mice and rats): 1400 to 3500 mg/kg
oral LD50 ([4]; rats, both sexes combined): 3560 mg/kg
Comparable Human IV Dosage ([5]; estimated from dog sub-acute IV value): 100 mg/m^2/d
Comparable Human IV Dosage ([5]; estimated from mouse sub-acute IV LD10): 30 mg/m^2/d
corresponding safe starting dose in humans ([5]; for three days, from dog MTD): 100 mg/m^2 per day
% ILS (dying mice only) (L1210/0; mouse, in vivo): +128%
Day 60 survivors/total (L1210/0; mouse, in vivo): 0/10
Net log10 reduction in tumor burden after therapy (L1210/0; mouse, in vivo): 8
Sub-acute IV LD10 (Dog): 5 mg/kg/day
survival (dog, in vivo): (100% survival)
MTD (dog, in vivo, iv): 5 mg/kg/day
oral LD50 ([6]; female mice): 1962 mg/kg
oral LD50 ([6]; male mice): 1014 mg/kg
oral LD50 ([6]; mice, both sexes combined): 1432 mg/kg
% ILS (B16 Melanoma): 34%
Inhibition of B16 melanoma growth compared with CPA and Ifos (B16 Melanoma): slightly inferior to CPA but better than Ifos
T-C (B16 Melanoma): 8.4 days
Tumor-free survivors (B16 Melanoma): 6/10
single dose intravenous LD50 ([7]; female rats): 400 mg/kg
single dose intravenous LD50 ([7]; male rats): 567 mg/kg
% ILS (dying mice only) (L1210/CPA; mouse, in vivo): +114%
Day 60 survivors/total (L1210/CPA; mouse, in vivo): 1/10
Net log10 reduction in tumor burden after therapy (L1210/CPA; mouse, in vivo): 7
single dose intravenous LD50 ([8]; female mice): 484 mg/kg
single dose intravenous LD50 ([8]; male mice): 929 mg/kg

O=P1(NCCCl)OCCCN1CCCl (stereo not shown) [Ifosfamide, ifosfamide]
% ILS (Lewis Lung Carcinoma): 55%
Log kill total (Lewis Lung Carcinoma): >4.5
T-C (tumor growth delay) (Lewis Lung Carcinoma): 18 days
Tumor-free survivors (Lewis Lung Carcinoma): 7/10
Day 60 survivors/total (P388/0; mouse, in vivo): 7/10
Net log10 reduction in tumor burden after therapy (P388/0; mouse, in vivo): 7
Days to 2 Doublings (16/C Mammary Tumor; mouse, in vivo): 4.6 days and 4.9 days and 3.8 days and 4.0 days
Day 60 survivors/total (P388/CPA; mouse, in vivo): 0/10
Net log10 reduction in tumor burden after therapy (P388/CPA; mouse, in vivo): 4
Day 60 survivors/total (L1210/0; mouse, in vivo): 0/10 and 0/9
Net log10 reduction in tumor burden after therapy (L1210/0; mouse, in vivo): 8
% ILS (B16 Melanoma): 55%
T-C (B16 Melanoma): 18 days
Tumor-free survivors (B16 Melanoma): 7/10
Day 60 survivors/total (L1210/CPA; mouse, in vivo): 0/10
